From US20260097022A1, “COMPOUNDS AND USES THEREOF” (Integrated Biosciences, Inc., priority 2023, published 2026) come the findings set out here.

SMILES strings stand for the structures. Structures can show the parent of a compound that is named as a salt.

For the first assay, the system named is etoposide-treated IMR-90 cells. The assay can be described thus: Etoposide-induced senescence model, resazurin cell viability (screen and dose-response). The assay is classed as cell-based, human. The following applies: 1 μM, 3 days. The essentials: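 IMR-90 fibroblasts made senescent with 50 μM etoposide for 2 days, then 4 days recovery before plating. Compounds at 10 μM or 1 μM final (screen) or three-fold dilutions (1% DMSO) for 3 days, then 0.15 mM resazurin 1 day, fluorescence 550/590 nm. Viability expressed as fraction of untreated controls; biological duplicates.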
Take `CN(C)CCCN1c2ccccc2CCc2ccccc21` [imipramine hydrochloride, reference compound]: the “senolytic activity in screen” value is reported as “active”.

For `Cc1noc(NS(=O)(=O)c2ccc(N)cc2)c1C` [sulfisoxazole, reference compound], the “senolytic activity in screen” value was “active”.

The assay is the same for the next values; noted with them: 10 μM, 3 days; active: control viability >0.5, Snc/control ratio <0.7.
Regarding `C[C@@H]1O[C@@H](O[C@H]2C[C@@H](O)[C@]3(CO)[C@H]4[C@H](O)C[C@]5(C)[C@@H](C6=CC(=O)OC6)CC[C@]5(O)[C@@H]4CC[C@]3(O)C2)[C@H](O)[C@H](O)[C@H]1O` [ouabain, reference compound], the “senolytic activity in screen” value was “active”.

The assay is the same for the next values; noted with them: etoposide-induced senescence model; ratio of IC50 values between etoposide- and DMSO-treated IMR-90 fibroblasts.
On to `O=C(CSc1nc2ccc(NC(=O)c3ccccc3Br)cc2s1)Nc1ccccc1` [compound 127], for which the “Therapeutic Index (TI)” value is “++ (compounds with a TI of 1 to 5 were labelled as ++)”.

Regarding `O=C(CSc1nc2ccc(NC(=O)c3ccccc3)cc2s1)Nc1ccccc1C(F)(F)F` [compound 128], the “Therapeutic Index (TI)” value was “++ (compounds with a TI of 1 to 5 were labelled as ++)”. The same measure, in the same setting: as for `CCCCOc1ccc(NC(=O)CSc2nc3ccc(NC(=O)c4ccc(Cl)cc4Cl)cc3s2)cc1` [compound 129], the entry is “++ (compounds with a TI of 1 to 5 were labelled as ++)”. On the same count and under the same terms, the entry for `COc1ccccc1C(=O)Nc1ccc2nc(SCC(=O)Nc3ccccc3C)sc2c1` [compound 130] is “++ (compounds with a TI of 1 to 5 were labelled as ++)”; for `COc1ccc(Cl)cc1NC(=O)CSc1nc2ccc(NC(=O)c3ccc(C)cc3)cc2s1` [compound 131] it is “++ (compounds with a TI of 1 to 5 were labelled as ++)”; for `O=C(Nc1ccc2nc(SCC(=O)N3CCc4ccccc43)sc2c1)c1ccccc1Cl` [compound 132] it is “++ (compounds with a TI of 1 to 5 were labelled as ++)”.

Take `CC(=O)Nc1ccc(NC(=O)CSc2nc3ccc(NC(=O)c4ccc(C)cc4)cc3s2)cc1` [compound 133]: the “Therapeutic Index (TI)” value was “++ (compounds with a TI of 1 to 5 were labelled as ++)”.

In the case of `CCc1ccc(NC(=O)CSc2nc3ccc(NC(=O)c4ccccc4)cc3s2)cc1` [compound 134], the “Therapeutic Index (TI)” value is reported as “++ (compounds with a TI of 1 to 5 were labelled as ++)”. The same measure, in the same setting: as for `CC(=O)Nc1ccc(NC(=O)CSc2nc3ccc(NC(=O)c4ccccc4)cc3s2)cc1` [compound 135], the entry is “++ (compounds with a TI of 1 to 5 were labelled as ++)”.

For `Cc1cccc(NC(=O)CSc2nc3ccc(NC(=O)c4cccc(C)c4)cc3s2)c1` [compound 136], the “Therapeutic Index (TI)” value is “++ (compounds with a TI of 1 to 5 were labelled as ++)”. On the same count and under the same terms, as for `O=C(CSc1nc2ccc(NC(=O)c3ccccc3)cc2s1)Nc1ccc(Br)cc1` [compound 137], the entry is “++ (compounds with a TI of 1 to 5 were labelled as ++)”; as for `CC(=O)c1ccc(NC(=O)CSc2nc3ccc(NC(=O)c4cccc(C)c4)cc3s2)cc1` [compound 138], “++ (compounds with a TI of 1 to 5 were labelled as ++)”. Same read-out and setting: as for `Cc1cc(C)c(NC(=O)C(C)Sc2nc3ccc(NC(=O)c4ccccc4)cc3s2)c(C)c1` (stereo not drawn) [compound 139], the entry is “++ (compounds with a TI of 1 to 5 were labelled as ++)”; as for `O=C(CSc1nc2ccc(NC(=O)c3ccccc3)cc2s1)Nc1ccc(F)cc1` [compound 140], “++ (compounds with a TI of 1 to 5 were labelled as ++)”; as for `Cc1ccc(NC(=O)CSc2nc3ccc(NC(=O)c4ccccc4C)cc3s2)cc1` [compound 141], “++ (compounds with a TI of 1 to 5 were labelled as ++)”. Still for that read-out and setting: as for `O=C(CSc1nc2ccc(NC(=O)c3ccccc3)cc2s1)Nc1ccccc1` [compound 142], the entry is “+ (Compounds with a TI of <1 were labelled as +)”; as for `Cc1ccc(NC(=O)CSc2nc3ccc(NC(=O)c4ccccc4F)cc3s2)cc1Cl` [compound 143], “+ (Compounds with a TI of <1 were labelled as +)”; as for `Cc1cc(C)c(NC(=O)C(C)Sc2nc3ccc(NC(=O)c4ccccc4C)cc3s2)c(C)c1` (stereo not drawn) [compound 144], “+ (Compounds with a TI of <1 were labelled as +)”. Regarding `Cc1ccc(NC(=O)CSc2nc3ccc(NC(=O)c4ccc(C)cc4)cc3s2)cc1` [compound 145], the “Therapeutic Index (TI)” value is recorded as “+ (Compounds with a TI of <1 were labelled as +)”. Still for that read-out and setting: the entry for `CN(C(=O)CSc1nc2ccc(NC(=O)c3ccccc3)cc2s1)c1ccccc1` [compound 146] is “+ (Compounds with a TI of <1 were labelled as +)”; for `COc1ccccc1C(=O)Nc1ccc2nc(SCC(=O)Nc3cc(C)cc(C)c3)sc2c1` [compound 147] it is “+ (Compounds with a TI of <1 were labelled as +)”. Still for that read-out and setting: the entry for `CCCCOc1ccc(NC(=O)CSc2nc3ccc(NC(=O)c4ccccc4Cl)cc3s2)cc1` [compound 148] is “+ (Compounds with a TI of <1 were labelled as +)”; for `CCCCCCCCCCOc1ccc(C(=O)Nc2ccc3nc(SCC(=O)Nc4ccccc4)sc3c2)cc1` [compound 149] it is “+ (Compounds with a TI of <1 were labelled as +)”; for `Cc1cccc(NC(=O)CSc2nc3ccc(NC(=O)c4ccccc4)cc3s2)c1C` [compound 150] it is “+ (Compounds with a TI of <1 were labelled as +)”.

For the molecule `Cc1ccccc1C(=O)Nc1ccc2nc(SCC(=O)Nc3ccc(C(C)C)cc3)sc2c1` [compound 151], the “Therapeutic Index (TI)” value is “+ (Compounds with a TI of <1 were labelled as +)”. On the same count and under the same terms, the entry for `Cc1ccccc1NC(=O)CSc1nc2ccc(NC(=O)c3ccccc3C)cc2s1` [compound 152] is “+ (Compounds with a TI of <1 were labelled as +)”; for `COc1cccc(NC(=O)CSc2nc3ccc(NC(=O)c4ccccc4)cc3s2)c1` [compound 153] it is “+ (Compounds with a TI of <1 were labelled as +)”; for `CC(=O)c1ccc(NC(=O)CSc2nc3ccc(NC(=O)c4ccc(C)cc4)cc3s2)cc1` [compound 154] it is “+ (Compounds with a TI of <1 were labelled as +)”.

With `COc1ccccc1C(=O)Nc1ccc2nc(SCC(=O)Nc3ccc(C(C)C)cc3)sc2c1` [compound 155], the “Therapeutic Index (TI)” value was “+ (Compounds with a TI of <1 were labelled as +)”. Same read-out and setting: as for `COc1ccc(C(=O)Nc2ccc3nc(SCC(=O)N(C)c4ccccc4)sc3c2)cc1` [compound 156], the entry is “+ (Compounds with a TI of <1 were labelled as +)”. The same measure, in the same setting: as for `CC(=O)c1ccc(NC(=O)CSc2nc3ccc(NC(=O)c4ccccc4)cc3s2)cc1` [compound 157], the entry is “+ (Compounds with a TI of <1 were labelled as +)”. Still for that read-out and setting: as for `COc1cccc(NC(=O)CSc2nc3ccc(NC(=O)c4ccccc4C)cc3s2)c1` [compound 158], the entry is “+ (Compounds with a TI of <1 were labelled as +)”; as for `Cc1cccc(NC(=O)CSc2nc3ccc(NC(=O)c4ccccc4C)cc3s2)c1` [compound 159], “+ (Compounds with a TI of <1 were labelled as +)”; as for `COc1ccccc1C(=O)Nc1ccc2nc(SCC(=O)Nc3cc(Cl)ccc3C)sc2c1` [compound 160], “+ (Compounds with a TI of <1 were labelled as +)”. Turning to `COc1ccc(CNC(=O)CSc2nc3ccc(NC(=O)c4ccccc4C)cc3s2)cc1` [compound 161], the “Therapeutic Index (TI)” value is reported as “+ (Compounds with a TI of <1 were labelled as +)”. Still for that read-out and setting: as for `COc1ccc(C(=O)Nc2ccc3nc(SCC(=O)N4CCOCC4)sc3c2)cc1OC` [compound 162], the entry is “+ (Compounds with a TI of <1 were labelled as +)”; as for `COc1ccccc1NC(=O)CSc1nc2ccc(NC(=O)c3ccccc3C)cc2s1` [compound 163], “+ (Compounds with a TI of <1 were labelled as +)”; as for `CC(=O)c1ccc(NC(=O)CSc2nc3ccc(NC(=O)c4ccccc4C)cc3s2)cc1` [compound 164], “+ (Compounds with a TI of <1 were labelled as +)”. Still for that read-out and setting: the entry for `COc1cccc(C(=O)Nc2ccc3nc(SCC(=O)Nc4ccccc4C)sc3c2)c1` [compound 165] is “+ (Compounds with a TI of <1 were labelled as +)”. On the same count and under the same terms, as for `CCOc1ccc(NC(=O)CSc2nc3ccc(NC(=O)c4ccccc4)cc3s2)cc1` [compound 166], the entry is “+ (Compounds with a TI of <1 were labelled as +)”; as for `COc1ccccc1NC(=O)CSc1nc2ccc(NC(=O)c3ccccc3)cc2s1` [compound 167], “+ (Compounds with a TI of <1 were labelled as +)”. With `COc1ccccc1C(=O)Nc1ccc2nc(SCC(=O)Nc3ccc(C)cc3C)sc2c1` [compound 168], the “Therapeutic Index (TI)” value is “+ (Compounds with a TI of <1 were labelled as +)”. The same measure, in the same setting: as for `COC(=O)c1ccc(NC(=O)CSc2nc3ccc(NC(=O)c4ccc(C)cc4)cc3s2)cc1` [compound 169], the entry is “+ (Compounds with a TI of <1 were labelled as +)”; as for `COc1ccccc1C(=O)Nc1ccc2nc(SCC(=O)Nc3ccccc3Cl)sc2c1` [compound 170], “+ (Compounds with a TI of <1 were labelled as +)”; as for `O=C(CSc1nc2ccc(NC(=O)c3ccc(CO)c(F)c3)cc2s1)Nc1ccc(F)cc1` [compound 171], “+++ (compounds with a TI of >5 were labeled as +++)”. On the same count and under the same terms, the entry for `COc1ccc(C(=O)Nc2ccc3nc(SCC(=O)Nc4ccccc4)sc3c2)c(F)c1` [compound 172] is “+++ (compounds with a TI of >5 were labeled as +++)”. Same read-out and setting: the entry for `CS(=O)(=O)c1ccc(C(=O)Nc2ccc3nc(SCC(=O)Nc4cccc(S(N)(=O)=O)c4)sc3c2)cc1F` [compound 173] is “++ (compounds with a TI of 1 to 5 were labelled as ++)”. With `CS(=O)(=O)c1cccc(C(=O)Nc2ccc3nc(SCC(=O)Nc4ccc(F)cc4)sc3c2)c1` [compound 174], the “Therapeutic Index (TI)” value was “+++ (compounds with a TI of >5 were labeled as +++)”.
